16 compounds from patent US20090005250A1, “Substituted 2,4-diamino-1,3,5-triazines, processes for their use as herbicides and crop growth regulators” (Bayer CropScience AG, priority 2006, published 2009) can be followed below.

The test system of test [1] is harmful plants such as Stellaria media, Lolium multiflorum, Amaranthus retroflexus, Sinapis alba, Avena sativa and Setaria viridis. Briefly: Pre-emergence herbicidal action (greenhouse pot test). The following applies: application rate of 500 g or less of active substance per hectare; scored visually after 3 to 4 weeks in comparison to untreated controls. It counts as in vivo, mono- and dicotyledonous weed plants. An excerpt:
Seeds or rhizome pieces of mono- and dicotyledonous weed plants were placed in sandy loam in plastic pots and covered with soil. The inventive compounds, which have been formulated in the form of wettable powders or emulsion concentrates, were then applied to the surface of the covering soil as an aqueous suspension or emulsion in different dosages with an application rate of from 600 to 800 l/ha of water (converted). After the treatment, the pots were placed in a greenhouse and kept under good growth conditions for the weeds. The plant or emergence damage is scored visually after the emergence of the test plants after an experiment time of from 3 to 4 weeks in comparison to untreated controls. […] For example, the examples no.

In test [2] the test system is harmful plants such as Sinapis alba, Echinochloa crus-galli, Lolium multiflorum, Stellaria media, Cyperus iria, Amaranthus retroflexus, Setaria viridis, Avena …. Briefly: Post-emergence herbicidal action (greenhouse pot test). It is filed as in vivo, mono- and dicotyledonous weeds. The following applies: application rate of 500 g and less of active substance per hectare; treated at three-leaf stage; scored visually after approx. 3 to 4 weeks. As to the method: Seeds or rhizome pieces of mono- and dicotyledonous weeds were placed in sandy loam in plastic pots, covered with soil and grown in a greenhouse under good growth conditions. Three weeks after the sowing, the test plants were treated at the three-leaf stage. The inventive compounds formulated as spray powders or as emulsion concentrates were sprayed onto the green plant parts in various dosages with an application rate of from 600 to 800 l/ha of water (converted). After the test plants had been left to stand in the greenhouse under optimal growth conditions for approx. 3 to 4 weeks, the action of the preparations was scored visually in comparison to untreated controls. The inventive compositions also had good post-emergence herbicidal activity against a wide spectrum of economically important gramineous and broadleaf weeds. For example, examples no.

Each structure is given as a SMILES string.

For `Nc1ncnc(NC(C2CC2)C2CC2)n1` [Example 1-19], the “herbicidal action, pre-emergence method” value in test [1] is “very good herbicidal action”. The “herbicidal action, post-emergence method” value in test [2] was “very good herbicidal action”.
As to `Cc1nc(N)nc(NC(C2CC2)C2CC2)n1` [Example 1-98], the “herbicidal action, pre-emergence method” value in test [1] is recorded as “very good herbicidal action”.
On to `Nc1nc(NC(C2CC2)C2CC2)nc(C2CC2)n1` [Example 1-256], for which the “herbicidal action, post-emergence method” value in test [2] was “very good herbicidal action”.
Regarding `CC(F)c1nc(N)nc(NC(C(C)C)C2CC2)n1` (stereo not shown) [Example 1-317], the “herbicidal action, pre-emergence method” value in test [1] is on record as “very good herbicidal action”. In addition, the “herbicidal action, post-emergence method” value in test [2] is reported as “very good herbicidal action”.
For the compound `CC(F)c1nc(N)nc(NC(C2CC2)C2CC2)n1` (stereo not shown) [Example 1-335], the “herbicidal action, pre-emergence method” value in test [1] is “very good herbicidal action”. Also, in test [2], the “herbicidal action, post-emergence method” value is “very good herbicidal action”.
Take `CCC(F)c1nc(N)nc(NC(C2CC2)C2CC2)n1` (stereo not shown) [Example 1-414]: the “herbicidal action, post-emergence method” value in test [2] was “very good herbicidal action”.
With `CCC(F)c1nc(N)nc(NC(C2CCC2)C2CCC2)n1` (stereo not shown) [Example 1-420], the “herbicidal action, pre-emergence method” value in test [1] was “very good herbicidal action”. Also, the “herbicidal action, post-emergence method” value in test [2] was “very good herbicidal action”.
For `CC(C)C(Nc1nc(N)nc(C(C)(C)F)n1)C1CC1` (stereo not shown) [Example 1-475], in test [1], the “herbicidal action, pre-emergence method” value is recorded as “very good herbicidal action”. Besides, in test [2], the “herbicidal action, post-emergence method” value is listed as “very good herbicidal action”.
For the compound `CC(C)(F)c1nc(N)nc(NC(C2CC2)C2CC2)n1` [Example 1-493], the “herbicidal action, pre-emergence method” value in test [1] was “very good herbicidal action”. Besides, the “herbicidal action, post-emergence method” value in test [2] was “very good herbicidal action”.
As to `CC(C)(F)c1nc(N)nc(NC(C2CCC2)C2CCC2)n1` [Example 1-499], in test [1], the “herbicidal action, pre-emergence method” value was “very good herbicidal action”.
On to `Nc1nc(NC(C2CC2)C2CC2)nc(C2(F)CC2)n1` [Example 1-572], for which the “herbicidal action, pre-emergence method” value in test [1] is reported as “very good herbicidal action”. In addition, the “herbicidal action, post-emergence method” value in test [2] is on record as “very good herbicidal action”.
As for `Nc1nc(NC(C2CC2)C2CC2)nc(C(F)F)n1` [Example 1-651], in test [1], the “herbicidal action, pre-emergence method” value was “very good herbicidal action”. The “herbicidal action, post-emergence method” value in test [2] is reported as “very good herbicidal action”.
Turning to `CC(=O)Nc1nc(NC(C2CC2)C2CC2)nc(C(C)(C)F)n1` [Example 2-199], the “herbicidal action, pre-emergence method” value in test [1] is “very good herbicidal action”. For the same compound, the “herbicidal action, post-emergence method” value in test [2] is “very good herbicidal action”.
As for `CN(C)C=Nc1nc(NC(C2CC2)C2CC2)nc(C(C)(C)F)n1` [Example 5-201], the “herbicidal action, pre-emergence method” value in test [1] is “very good herbicidal action”. Also, the “herbicidal action, post-emergence method” value in test [2] is on record as “very good herbicidal action”.
As to `CC(C)(F)c1nc(N=CN2CCOCC2)nc(NC(C2CC2)C2CC2)n1` [Example 6-199], in test [1], the “herbicidal action, pre-emergence method” value is reported as “very good herbicidal action”. Further, in test [2], the “herbicidal action, post-emergence method” value is on record as “very good herbicidal action”.
Regarding `CC(C)(F)c1nc(N)nc(NC2CCC3CC32)n1` (stereo not shown) [Example 7-79], in test [1], the “herbicidal action, pre-emergence method” value is recorded as “very good herbicidal action”. The “herbicidal action, post-emergence method” value in test [2] is “very good herbicidal action”.
